Consider 64 molecules from a melting point compilation (Tetko et al.; mined from patent text by program, amines drawn as free bases though some values may be those of a salt).

By melting point is commonly meant the temperature of the solid-liquid transition.

The molecule `COc1ccc(C2COc3c(ccc(O)c3C)C2)cc1OC` (centres undefined) returned a melting point of 125 to 127 °C.

`COC(=O)CNc1ccc(OCc2ccccc2)cc1`: the melting point was 106 to 107 °C.

The molecule `O=C(O)CCc1cc2c(Cl)c(Cl)ccc2n1S(=O)(=O)c1ccccc1` showed a melting point of 220 °C.

`O=C(C1CCCCC1CO)N1CCCC1` (centres undefined) had a melting point of 115 °C.

In turn, `COc1cc(OC)cc(C2CC=CCC2=O)c1` (centres undefined) returned a melting point of 60 to 62 °C.

Regarding `O=C(c1ccc(F)cc1)c1cccc(C(=O)c2ccc(F)cc2)c1`, the melting point was determined as 178 °C.

The molecule `CCOc1ccc(N(C)C)cc1-c1ncc(C(=O)O)c(=O)[nH]1` returned a melting point of 187 to 196 °C.

Turning to `CN(C(=O)N1CC(C)(c2ccccc2)C(c2ccc(Cl)cc2)=N1)c1ccc(Cl)cc1` (centres undefined), the melting point is 132 to 135 °C.

With `CCOC(=O)c1cnc2cc(OC)c(OC)cc2c1Nc1cccc(Br)c1`, the melting point is 155 to 158 °C.

Turning to `C#CCOc1cc(Oc2cccc(Cl)c2)ncn1`, the melting point turned out to be 71.6 °C.

`O=C(Nc1ccc(C(=O)N2Cc3ccccc3Cc3ccccc32)cc1)c1ccccc1Cl`: the melting point fell in the range of 110 to 115 °C.

As to `CC1(C)C(=O)Nc2ccc(-c3ccc([N+](=O)[O-])s3)cc21`, the melting point is 223 to 225 °C.

As to `CCN1c2ncccc2C(N2CCCC2)=Nc2c(C)cc(C)nc21`, the melting point is 138 to 140 °C.

`C=CCOCCOC(=O)c1cc(-n2c(OC)nc(C(F)(F)F)cc2=O)c(F)cc1Cl`: the melting point is 74 to 77 °C.

Molecule `O=C1C2Cc3cc4ccccc4n3CC2CN1Cc1ccccc1` (centres undefined) came in with a melting point of 121 to 123 °C.

As to `Nc1ncc(S(=O)c2ccc(F)cc2F)s1` (centres undefined), the melting point is 171 to 172 °C.

In turn, `O=C1CCC(C(=O)O)(c2ccccc2)CC1` gave a melting point of 136 to 140 °C.

For the molecule `N#Cc1ccc(COc2ccc(-c3ccc(C4Cc5ccccc5C(O)C4)cc3)cc2)cc1` (centres undefined), the melting point amounted to 172 °C.

`CC(C=CC=C(C)c1cc2c(s1)C(C)(C)CCC2(C)C)=CC(=O)O`: the melting point is 226 to 228 °C.

As for `Cc1ccc(Nc2nnc(Cc3ccncc3)c(C)c2C)cc1`, the melting point is 68 to 70 °C.

In turn, `CCOCc1nc2c(N)nc3ccccc3c2n1CCC1(O)CC1` had a melting point of 210 to 211 °C.

As for `Cc1c(C)c2c(c(C)c1NC(=O)NCCO)C(c1ccc(C(C)C)cc1)CO2` (centres undefined), the melting point fell in the range of 186 to 188 °C.

In the case of `CC(C)Nc1nc2c(Cl)cc(Cl)cc2n1[C@H]1O[C@@H](CO)[C@H](O)[C@@H]1O`, the melting point lay in the range of 212 to 214 °C.

As for `CC(C)(C)[C@@H](CO)NC(=O)[C@@H](CC(=O)OCc1ccccc1)n1ccc(-c2ccc(-c3ccc(C(N)=O)cc3)cc2)c1`, the melting point is 201 to 203 °C.

`CCCOc1ccc(-c2ccc3c(c2)C=C(C(=O)O)CCS3(=O)=O)cc1` gave a melting point of 270 to 273 °C.

Consider `COc1ccccc1Oc1c(Cl)nc(-c2cccc(OCc3ccccc3)c2)nc1NS(=O)(=O)c1ccc(C)cn1`, for which the melting point was in the range of 176 to 180 °C.

As for `O=C(NC(=S)Nc1nc(-c2ccc3c(c2)CCCC3)cs1)c1ccc(Cl)cc1`, the melting point is 193 to 194 °C.

The molecule `CNC(=S)C1=CC(CF)(CF)Oc2ccc(C(F)(F)F)cc21` came in with a melting point of 145 to 147 °C.

As for `CCc1nc(N)nc(N)c1-c1ccccc1Cl`, the melting point is 197 to 198 °C.

For the molecule `CC(C)(C)OC(=O)NCCCc1ccccc1C=CC(=O)O`, the melting point was in the range of 122 to 126 °C.

As for `COC(=O)[C@H](CC1=CCC(N)(O)C=C1)NC(=O)c1ccccc1` (some centres undefined), the melting point came to 170 °C.

Turning to `O=C1NC(CO)(CO)CO1`, the melting point lay within 107 to 108 °C.

Regarding `COc1ccc(Cl)cc1-c1[nH]c2cccc3c2c1CCNC3=O`, the melting point is 160 to 162 °C.

`COc1ccc(CCN(C)C)c2[nH]c(C(F)(F)F)nc12` displayed a melting point of 182 to 185 °C.

The molecule `Cc1c(Br)c(C)c2c(OS(=O)(=O)C(F)(F)F)coc2c1C` gave a melting point of 54 to 55 °C.

As to `NC(=O)c1cn(C2CCCC2)nc1N`, the melting point was in the range of 179 to 181 °C.

For the molecule `CC1(C)C=C(O)C(=O)C(C)(C)C1`, the melting point lay in the range of 85 to 86 °C.

In turn, `CCOc1cc2c(cc1OCC)C(c1cccc(N)c1)=NN=C(C)C2` displayed a melting point of 133 to 134 °C.

With `COC(=O)c1coc(-c2ccc(NS(=O)(=O)c3sc4ccc(Cl)cc4c3C)c(S(C)(=O)=O)c2)n1`, the melting point lay within 237 to 239 °C.

The molecule `O=C(Nc1ccc(C(=O)N2Cc3ccccc3Cc3ccccc32)cc1)c1c(Cl)cccc1Cl` registered a melting point of 257 to 259 °C.

In turn, `CCN1CNS(=O)(=O)c2cc(Oc3cccc(C(C)O)c3)ccc21` (centres undefined) came in with a melting point of 60 °C.

`Cc1cncc(-c2ccc(OC3SCC(O)C(O)C3O)cn2)c1` (centres undefined) showed a melting point of 165 to 166 °C.

The molecule `O=C(O)c1ccc(Cl)nc1NCc1ccncc1` displayed a melting point of 217 to 220 °C.

As to `O=C(SC1CCC1C(=O)N1CCC[C@H]1C(=O)O)c1ccccc1` (some centres undefined), the melting point fell in the range of 123 to 124 °C.

With `O=C(O)Cc1ccc(N2CC3=C(CC=CC3)C2=O)cc1`, the melting point lay within 198 to 200 °C.

In turn, `O=c1cc(-c2ccccc2)sn1-c1nc2ccccc2s1` had a melting point of 201 to 202 °C.

In turn, `COCCNC(=O)c1ccc(NS(=O)(=O)c2ccc(F)cc2)cn1` came in with a melting point of 154 °C.

Molecule `CC1(CS)C(=O)N2CCCC(C(=O)O)N2C1=O` (centres undefined) showed a melting point of 209 to 211 °C.

`Nc1ccccc1Nc1ccc(Oc2ccc(C(c3ccc(Oc4ccc(Nc5ccccc5N)cc4)cc3)(C(F)(F)F)C(F)(F)F)cc2)cc1`: the melting point lay within 62.4 to 64.1 °C.

`[N-]=[N+]=NC(=O)c1cn(C2CCN(Cc3ccccc3)C2)nn1` (centres undefined) gave a melting point of 160 °C.

Molecule `N#Cc1c(N2CCCCC2)cc(-c2ccco2)c2c1Cc1ccccc1-2` yielded a melting point of 160 to 162 °C.

`COc1ccc(NS(=O)(=O)c2sc3ccc(Cl)cc3c2C)cc1N1CCN(C(=O)OC(C)(C)C)CC1` registered a melting point of 100 to 103 °C.

In turn, `O=C(c1ccc(-c2ccncn2)cc1)N1CCN(S(=O)(=O)c2cc3cc(Cl)ccc3[nH]2)CC1` displayed a melting point of 229 to 230 °C.

Molecule `COc1cc2c(cc1OC)C(Oc1ccccc1)CN(NC(=O)c1cc(Cl)cc(Cl)c1)CC2` (centres undefined) returned a melting point of 184 to 185 °C.

`Cc1cccc(NC(=O)NCC(=O)N2[C@@H](C(=O)OC(C)(C)C)CC[C@H]2c2ccccc2)c1` (racemic) showed a melting point of 156 °C.

`CC(C)(C)c1ccc(CCOc2ncnc3cnccc23)cc1` yielded a melting point of 59 to 60 °C.

In the case of `CC(=O)Nc1nc2ccc(S(=O)(=O)n3c(CCC(=O)O)cc4cc(Cl)ccc43)cc2s1`, the melting point was above 250 °C.

For the molecule `O=C(NCC1CCN(CC2(C(=O)O)CCOCC2)CC1)N1C(=O)C2(CCCC2)c2ccc(F)cc21`, the melting point stood at 129 °C.

`CC1(C)COc2ccc(C#N)cc21`: the melting point fell in the range of 70 to 71 °C.

`O=c1ccc(S(=O)(=O)n2ccc3ccccc32)n[nH]1` returned a melting point of 169 to 170 °C.

Molecule `CCN1CCCC(N2C(=O)c3ccc(N)cc3C2=O)C1` (centres undefined) showed a melting point above 300 °C.

Molecule `CC(C)(C)OC(=O)N1CCN(c2ncccc2C=O)CC1` had a melting point of 88 to 89 °C.

As to `CCOCc1nc2c(N)nc3cc(Br)ccc3c2n1CC1(O)CCCC1`, the melting point was 128 to 130 °C.

As for `NS(=O)(=O)CC(=O)c1ccccc1`, the melting point fell in the range of 97 to 99 °C.
